Test results as given in ChEMBL document CHEMBL4261654, “Synthesis and in vitro antitumor activity of novel alkenyl derivatives of pyridoxine, bioisosteric analogs of feruloyl methane” (Bioorg Med Chem, 2018).

What was measured:
MCF7 = test: Antiproliferative activity against human MCF7 cells after 72 hrs by MTT assay; type: functional, cell-based; details: MCF7, 72 h
HEK293 = test: Antiproliferative activity against human HEK293 cells after 72 hrs by MTT assay; type: cell-based; details: HEK293, 72 h
PC-3 = test: Antiproliferative activity against human PC3 cells after 72 hrs by MTT assay; type: functional, cell-based; details: PC-3, 72 h
A498 = test: Antiproliferative activity against human A498 cells after 72 hrs by MTT assay; type: functional, cell-based; details: A498, 72 h
NCI-H322M = test: Antiproliferative activity against human NCI-H322M cells after 72 hrs by MTT assay; type: functional, cell-based
HCT-15 = test: Antiproliferative activity against human HCT15 cells after 72 hrs by MTT assay; type: functional, cell-based; details: HCT-15, 72 h
[1] = Antiproliferative activity against HSF cells after 72 hrs by MTT assay; type: cell-based; details: Homo sapiens
MDA-MB-231 = test: Antiproliferative activity against human MDA-MB-231 cells after 72 hrs by MTT assay; type: functional, cell-based; details: MDA-MB-231, 72 h
OVCAR-4 = test: Antiproliferative activity against human OVCAR4 cells after 72 hrs by MTT assay; type: functional, cell-based; details: OVCAR-4, 72 h
HCT-116 = test: Antiproliferative activity against human HCT116 cells after 72 hrs by MTT assay; type: functional, cell-based; details: HCT-116, 72 h
M14 = test: Antiproliferative activity against human M14 cells after 72 hrs by MTT assay; type: functional, cell-based; details: M14, 72 h
SNB-19 = test: Antiproliferative activity against human SNB19 cells after 72 hrs by MTT assay; type: functional, cell-based; details: SNB-19, 72 h

IC50 (MCF7) [nM] | SMILES | IC50 (HEK293) [nM] | IC50 (PC-3) [nM] | IC50 (A498) [nM] | IC50 (NCI-H322M) [nM] | IC50 (HCT-15) [nM] | IC50 [1] [nM] | IC50 (MDA-MB-231) [nM] | IC50 (OVCAR-4) [nM] | IC50 (HCT-116) [nM] | IC50 (M14) [nM] | IC50 (SNB-19) [nM]
2400 | CCCCCCCCCC(C)C1OCc2c(/C=C/C(C)=O)cnc(C)c2O1 (stereo not drawn) | 7000 | – | – | – | – | – | – | – | – | – | –
– | COc1cccc2c1C(=O)c1c(O)c3c(c(O)c1C2=O)C[C@@](O)(C(=O)CO)C[C@@H]3O[C@H]1C[C@H](N)[C@H](O)[C@H](C)O1 [DOXORUBICIN] | 1200 | 230 | 6100 | 29000 | 2200 | 2200 | 300 | 150 | 400 | 3400 | 150
